Like-named read-outs stand apart in the source and are kept apart here.
Key:
[1] = test system: B16F10 mouse melanoma cells; assay: B16F10 IFNγ-induced cellular growth inhibition assay; type: cell-based; conditions: Mus musculus, B16-F10, 33 μM compound
Method in brief: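 B16F10 cells (500/well, DMEM + 10% FBS) dosed in triplicate at 100 μM to 0.001 μM (0.1% DMSO) with or without 0.5 ng/mL final mouse IFNγ. Confluence imaged every 6 h for 5 days; % growth inhibition calculated versus DMSO/with-IFNγ control once DMSO/no-IFNγ wells exceeded 95% confluence.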

[2] = target: T1, His tagged PTPN2 (TC45) protein (Homo sapiens, UniProt P17706); assay: Mobility shift assay (MSA) for potency of PTPN2 inhibitors; type: biochemical; conditions: read-out: PTPN2 MSA IC50
T1 construct: made in house
T1 sequence (P17706 with tags, fused parts or gaps isoform P17706-2): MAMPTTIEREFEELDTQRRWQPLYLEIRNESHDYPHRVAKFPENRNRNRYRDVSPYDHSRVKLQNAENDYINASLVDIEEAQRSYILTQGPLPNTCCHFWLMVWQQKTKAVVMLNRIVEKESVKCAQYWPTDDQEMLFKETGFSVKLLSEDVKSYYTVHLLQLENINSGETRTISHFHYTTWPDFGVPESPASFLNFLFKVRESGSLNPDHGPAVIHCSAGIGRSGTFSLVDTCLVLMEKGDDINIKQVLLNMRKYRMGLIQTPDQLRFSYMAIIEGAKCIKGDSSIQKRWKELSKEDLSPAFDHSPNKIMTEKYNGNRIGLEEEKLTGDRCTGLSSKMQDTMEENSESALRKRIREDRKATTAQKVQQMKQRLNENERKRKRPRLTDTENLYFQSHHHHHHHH
Method in brief: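 His-tagged PTPN2 TC45 (0.5 nM) was preincubated with compound (12-point, 1:3) for 10 min at room temperature in 50 mM HEPES pH 7.5, 1 mM EGTA, 10 mM EDTA, 0.01% Tween 20, 2 mM DTT. OG488-labelled phospho-insulin-receptor peptide ([…]) was then added for 10 min. After quenching, dephosphorylation was measured by microfluidic mobility shift and IC50 derived from % inhibition.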

[3] = test system: Pan T cells isolated from C57BL6 splenocytes; assay: T cell function assay (IFNγ and TNFα in supernatants, MSD V-plex); type: cell-based, mouse; conditions: 30 μM compound, 3 days, supernatant
Procedure: (§1) Pan T cells were isolated from C57BL6 splenocytes using a MACS Pan T cell isolation kit II (Miltenyi Biotec, Auburn, Calif.) according to the manufacturer's instructions. Isolated T cells (200,000 cells/well in a 96 well flat-bottom plate) were cultured in RPMI 1640 supplemented with 10% FBS, […] 2-mercatoethanol, 100 U/mL penicillin, and 100 μg/mL streptomycin, and incubated with the indicated concentration of compound or DMSO in duplicates. After 1 hour, mouse T cell activator CD3/CD28 Dynabeads (ThermoFisher Scientific, Waltham, Mass.) were added at a 1:5 beads to cells ratio to stimulate the T cells for 2 or 3 days as outlined below. T cells with or without compound were incubated in the absence of T cell activator beads (media only) as control.
After 3 days of stimulation, supernatants were collected and IFNγ and TNFα in supernatants were assessed using an MSD V-plex assay (Meso Scale Discovery, Rockville, Md.).

[4] = test system: Pan T cells isolated from C57BL6 splenocytes; assay: T cell activation assay (flow cytometry, CD25/CD69 on CD8 T cells); type: cell-based, mouse; conditions: for % CD25 within CD8+ / % CD69 within CD8+ / CD25 MFI / CD69 MFI: 30 μM compound, 2 days
Procedure: as §1
After 2 days of stimulation, activation status of T cells was assessed by flow cytometry. T cells were first subjected to Zombie Violet™ Fixable Viability dye (BioLegend, San Diego, Calif.) for dead cell exclusion, washed and then stained with BUV805 labeled anti-CD8, APC-R700 labeled anti-CD25 (both from BD Biosciences, San Jose, Calif.) and PE labeled anti-CD69 (BioLegend, San Diego, Calif.) antibodies. After staining, cells were fixed with 2% paraformaldehyde and acquired on a BD LSRFortessa™ X-20 flow cytometer (BD Biosciences, San Jose, Calif.) using BD FACSDiva™ software. Data was analyzed using FlowJo V10 (Flow Jo LLC, Ashland, Oreg.). Dead cells were excluded and frequencies of activated CD8 T cells was reported as the frequency of CD25+ or CD69+ cells within the CD8+ population. The expression level of CD25 and CD69 indicates the activation status of cells on a per cell basis and was evaluated by the mean fluorescence intensities (MFI) of CD25 and CD69.

[5] = anti-CD3/anti-CD28 Dynabeads (1:5 beads:cells)

O=C1CN(c2c(O)cc3ccc(OC(F)F)cc3c2F)S(=O)(=O)N1 [Compound 260, 5-[7-(difluoromethoxy)-1-fluoro-3-hydroxynaphthalen-2-yl]-1λ^6,2,5-thiadiazolidine-1,1,3-trione]
inhibition at 33 µM ([1]; +0.5 ng/mL IFNγ, relative to DMSO control, read-out: % B16F10 growth inhibition (+0.5 ng/mL IFNγ) @ 33 μM): 25 to 59% | inhibition at 33 µM ([1]; no IFNγ, read-out: % B16F10 growth inhibition (no IFNγ) @ 33 μM): < 25% | IC50 [2]: 1 to 10 nM | IFNγ [3, 5]: 752 ng/mL | TNFα [3, 5]: 207 ng/mL | IFNγ ([3]; no TCR stimulation): 3.8 ng/mL | TNFα ([3]; no TCR stimulation): 2.1 ng/mL | % CD25 within CD8+ [4, 5]: 39.60% | % CD69 within CD8+ [4, 5]: 61.65% | CD25 MFI [4, 5]: 1085 | CD69 MFI [4, 5]: 464.5 | % CD25 within CD8+ ([4]; no TCR stimulation): 0.29% | % CD69 within CD8+ ([4]; no TCR stimulation): 0.17% | CD25 MFI ([4]; no TCR stimulation): 28.3 | CD69 MFI ([4]; no TCR stimulation): 10.2 | T cell activation and T cell function ([4]; with TCR stimulation): increased both T cell activation and T cell function

Source: patent US20210009542A1 (Calico Life Sciences LLC, priority 2018, published 2021)
